Data published in paper PMC8512764, “New 4-Aminoproline-Based Small Molecule Cyclopeptidomimetics as Potential Modulators of α4β1 Integrin” (Molecules, 2021).
Entries after “also recorded” stand apart in the source; their conditions may differ. *1 amine or outer side, *2 acyl side, *3 side chain or, on linkers, in order; H or OH if unused. Where a SMILES comes first, the peptide text is derived from it. Bridges are numbered along the chain shown (N, C = ends). [ ]: non-standard residue; d: D form. The star is where a group is joined. ξ: configuration not given here. ξPro(4ξ-NH2) = O=C(C1CC(N[*:3])CN1[*:1])[*:2]; X1 = O=C(Cc1ccc(N[*:1])cc1)[*:2]; NH(2-Me-phenyl) = Cc1ccccc1N*; CO = O=C([*:1])[*:2]

Key:
[1] = tested on: α4β1/VCAM-1 interaction; design: method as in PMID 10072689; settings: Jurkat cell adhesion assay; read-out: IC50, inhibition of α4β1/VCAM-1 interaction; cited from earlier work
[2] = tested on: Jurkat cells; experiment: Jurkat cell adhesion to wells coated with compound 16 (absence of VCAM-1); type: cell-based
Experimental: In a second set of experiments, the ability of compound 16 to increase cell adhesion was tested in the absence of VCAM-1. Wells were coated by passive adsorption with compound 16 or BSA (both at 10 µg/mL) as a negative control and Jurkat cell adhesion was measured (Figure 8b).
(§1) The number of adherent cells was determined as described above.

[3] = design: method as in PMID 31338363, PMID 26101577; settings: cited from earlier work
[4] = tested on: α4β7 integrin; design: method as in PMID 10072689; settings: cited from earlier work
[5] = tested on: allergic bronchoconstriction; design: method as in PMID 10072689; settings: administered as an aerosol; cited from earlier work
[6] = molecular target: T1, α4β1 integrin (Homo sapiens, UniProt P05556+P13612); settings: cited from earlier work
T1 construct: Jurkat cells endogenously express α4β1 integrin; host or cells: Jurkat E6.1 cells
T1 sequence (P13612 34-1032): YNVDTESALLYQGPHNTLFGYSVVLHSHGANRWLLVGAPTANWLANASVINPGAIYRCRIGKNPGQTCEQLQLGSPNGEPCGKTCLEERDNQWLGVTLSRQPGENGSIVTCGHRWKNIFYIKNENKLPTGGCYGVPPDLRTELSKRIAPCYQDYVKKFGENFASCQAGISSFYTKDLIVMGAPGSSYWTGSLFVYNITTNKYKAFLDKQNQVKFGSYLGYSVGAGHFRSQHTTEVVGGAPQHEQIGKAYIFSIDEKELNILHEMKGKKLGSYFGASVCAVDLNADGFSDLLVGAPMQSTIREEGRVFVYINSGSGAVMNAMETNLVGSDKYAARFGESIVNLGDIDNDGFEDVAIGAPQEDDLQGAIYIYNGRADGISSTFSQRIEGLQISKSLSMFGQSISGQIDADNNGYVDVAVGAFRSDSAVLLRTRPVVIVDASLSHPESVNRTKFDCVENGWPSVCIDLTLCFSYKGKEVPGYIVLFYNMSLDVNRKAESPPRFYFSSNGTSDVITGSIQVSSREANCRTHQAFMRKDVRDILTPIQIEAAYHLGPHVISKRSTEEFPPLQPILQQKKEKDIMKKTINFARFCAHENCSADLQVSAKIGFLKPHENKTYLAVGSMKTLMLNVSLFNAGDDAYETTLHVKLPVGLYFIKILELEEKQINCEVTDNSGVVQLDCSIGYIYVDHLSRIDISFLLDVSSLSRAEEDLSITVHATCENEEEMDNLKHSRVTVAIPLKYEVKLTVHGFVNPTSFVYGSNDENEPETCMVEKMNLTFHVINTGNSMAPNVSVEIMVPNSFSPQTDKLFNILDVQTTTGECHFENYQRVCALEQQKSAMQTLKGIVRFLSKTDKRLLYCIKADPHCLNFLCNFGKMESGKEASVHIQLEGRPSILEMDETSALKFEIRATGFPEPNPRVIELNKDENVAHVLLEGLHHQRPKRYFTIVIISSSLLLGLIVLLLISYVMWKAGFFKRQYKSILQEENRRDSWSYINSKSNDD
T1 sequence (P05556 21-798): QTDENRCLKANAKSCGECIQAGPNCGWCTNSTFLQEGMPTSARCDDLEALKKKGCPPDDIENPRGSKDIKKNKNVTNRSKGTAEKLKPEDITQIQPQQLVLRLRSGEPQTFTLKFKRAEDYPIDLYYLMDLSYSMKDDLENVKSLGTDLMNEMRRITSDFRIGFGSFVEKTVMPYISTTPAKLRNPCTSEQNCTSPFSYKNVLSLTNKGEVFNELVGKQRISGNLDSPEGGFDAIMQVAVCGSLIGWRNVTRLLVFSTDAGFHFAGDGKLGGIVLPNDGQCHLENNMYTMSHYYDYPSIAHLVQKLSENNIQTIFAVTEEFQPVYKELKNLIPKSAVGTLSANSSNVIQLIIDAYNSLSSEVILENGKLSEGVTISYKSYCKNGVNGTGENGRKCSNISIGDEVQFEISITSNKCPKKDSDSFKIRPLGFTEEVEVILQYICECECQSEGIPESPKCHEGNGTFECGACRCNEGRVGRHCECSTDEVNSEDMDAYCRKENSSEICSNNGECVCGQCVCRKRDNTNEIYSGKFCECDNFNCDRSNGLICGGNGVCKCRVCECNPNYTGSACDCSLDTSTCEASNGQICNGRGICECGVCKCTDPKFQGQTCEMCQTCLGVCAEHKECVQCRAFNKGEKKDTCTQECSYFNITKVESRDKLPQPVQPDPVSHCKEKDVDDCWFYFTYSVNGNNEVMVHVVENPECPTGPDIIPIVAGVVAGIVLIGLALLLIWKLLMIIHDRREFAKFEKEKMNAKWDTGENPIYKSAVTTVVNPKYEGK

[7] = molecular target: T1, α4β1 integrin; experiment: Jurkat cell adhesion assay on VCAM-1-coated wells; type: cell-based
Experimental: To investigate the ability of the newly synthesized cyclopeptidomimetics 12–18 to recognize and bind α4β1 integrin, cell adhesion assays were performed on VCAM-1. The compounds were evaluated for their ability to interfere with α4β1 integrin-mediated cell adhesion by using Jurkat cells, which are known to constitutively express this integrin [46, 48, 49, 50, 51].
Jurkat E6.1 cells were purchased from American Type Culture Collection (ATCC, Rockville, MD, USA) and were routinely cultured in RPMI-1640 (LifeTechnologies, Milan, Italy) supplemented with 10% FBS (fetal bovine serum, Life Technologies) and 2 mM glutamine. Cells were kept at 37 °C under 5% CO2 humidified atmosphere. Jurkat cells are a widely used cell model to study potential agonist or antagonist ligands able to modulate integrin-mediated cell adhesion. Jurkat cells endogenously express α4β1 integrin [13].
The assays were performed as previously described. In brief, black 96 well plates were coated with VCAM-1 (2 μg/mL) overnight at 4 °C; then, non-specific hydrophobic binding sites were blocked with 1% BSA (bovine serum albumin, Sigma-Aldrich) in HBSS (Life Technologies) for 30 min at 37 °C. Jurkat cells were labelled with CellTracker green CMFDA (12.5 μM, Life Technolgies) and pre-incubated with various concentration (10^−4–10^−10 M) of each new cyclopeptidomimetic or with the vehicle (DMSO) for 30 min at 37 °C. Afterwards, Jurkat cells were plated on VCAM-1-coated wells and incubated for 30 min at 37 °C. Then, wells were washed three times with 1% BSA in HBSS and Jurkat cells were lysed with 0.5% Triton X-100 in PBS for 30 min at 4 °C. Green fluorescence (Ex485 nm/Em 535 nm) was measured in an EnSpire Multimode Plate Reader (PerkinElmer, Waltham, MA, USA). Experiments were performed in quadruplicate and repeated at least three times. The number of adherent cells was determined by comparison with a standard curve made with a known concentration of labelled Jurkat cells. Data analysis and IC50/EC50 values were calculated using GraphPad Prism 6.0 (GraphPad Software, San Diego, CA, USA).
as §1

[8] = tested on: human α4β1 integrin; design: method as in PMID 30051467; settings: cited from earlier work
[9] = tested on: allergic conjunctivitis; design: method as in PMID 30051467; settings: cited from earlier work
[10] = tested on: α4 integrin; design: method as in PMID 30051467; settings: cited from earlier work
[11] = molecular target: α4β1 receptor; design: method as in PMID 16767086; settings: Jurkat cell assay; read-out: IC50, affinity toward α4β1 receptor; cited from earlier work
[12] = tested on: α4β1–positive cells; design: method as in PMID 16767086; settings: cited from earlier work
[13] = tested on: endothelial progenitor cells; design: method as in PMID 23703610; settings: α4β1-dependent; cited from earlier work

Cc1ccccc1NC(=O)Nc1ccc(CC(=O)N[C@@H](CC(C)C)C(=O)N[C@@H](CC(=O)O)C(=O)N[C@H](C(=O)N2CCC[C@H]2C(=O)O)C(C)C)cc1 [BIO1211, MPUPA-Leu-Asp-Val-Pro] ({NH(2-Me-phenyl)-CO}-[X1]LDVP-OH)
IC50 [1]: 4 nM | Effect of BIO1211 on cell adhesion induced by coated compound 16 ([2]; BIO1211 10 nM–100 mM, wells coated with compound 16 10 μg/mL): not able to reduce the increment of cell adhesion induced by compound 16 | Enzymatic stability [3]: a certain enzymatic instability | IC50 [4]: 2000 nM | Efficacy in sheep model of allergic bronchoconstriction [5]: prophylactic efficacy

Cc1ccccc1NC(=O)Nc1ccc(CNC(=O)C2=CCN(C(=O)CC(=O)O)[C@@H]2C(C)C)cc1 [Compound 11a]
Enzymatic stability [3]: superior enzymatic stability respect to cyclic peptides 8–10 | IC50, inhibition of α4β1/VCAM interaction [6]: in the nanomolar range

Cc1ccccc1NC(=O)Nc1ccc(CNC(=O)C2=CCN(C(=O)CC(=O)O)[C@H]2C(C)C)cc1 [Compound 11b]
Inhibitory potency towards α4β1 integrin [6]: considerably less active

Cc1ccccc1NC(=O)Nc1ccc(CC(=O)N2CC3CC2C(=O)NC(C(C)C)C(=O)NC(CC(=O)O)C(=O)NC(CC(C)C)C(=O)N3)cc1 (stereo not drawn) [Compound 16, c[(MPUPA)Amp-Val-Asp-Leu]] ({NH(2-Me-phenyl)-CO}-[X1][ξPro(4ξ-NH2)]VDL; lactam 2-C; configuration not given here)
Jurkat cell adhesion to compound-coated wells ([2]; wells coated with 10 μg/mL, absence of VCAM-1, vs BSA-coated wells): able to induce Jurkat cell adhesion; also recorded: significant adhesion of Jurkat cells | Behaviour in α4β1 integrin-mediated cell adhesion (agonist/antagonist) ([7]; Jurkat cell adhesion to VCAM-1 (2 μg/mL)): agonist | EC50 ([7]; Jurkat cell adhesion to VCAM-1 (2 μg/mL), means ± SD, n = 3, read-out: EC50/IC50 (EC50 for compounds enhancing cell adhesion)): 370 ± 90 nM | Effect of compound 16 on the reduced cell adhesion induced by BIO1211 ([7]; cells pre-incubated with BIO1211 (1 μM) 30 min, then compound 16 (100 μM)): not able to modify the reduction in adhesion induced by BIO1211; also recorded: not able to modify the reduced cell adhesion induced by BIO1211 | Effect on Jurkat cell adhesion to VCAM-1 ([7]; compound 16 100 μM): increasing the adhesion of Jurkat cells to VCAM-1

Cc1ccccc1NC(=O)Nc1ccc(CC(=O)N2CC[C@H](C(=O)NCC(=O)O)C2)cc1 [DS-70]
Binding affinity for human α4β1 integrin [8]: high binding affinity | Outcome in guinea pig model of allergic conjunctivitis [9]: successfully tested | Antagonist activity of α4–mediated cell adhesion [10]: potent antagonist activity

Cc1ccccc1NC(=O)Nc1ccc(CC(=O)N[C@@H](CCCCNC(=O)/C=C/c2cccnc2)C(=O)N[C@@H](CCCC(=O)O)C(=O)NC2(C(N)=O)CCCCC2)cc1 [LLP2A]
IC50 [11]: 0.002 nM | Effect on cell proliferation and survival of α4β1–positive cells [12]: without any effect

CCCC[C@@H](COC(=O)N(Cc1cccs1)Cc1cccs1)NC(=O)N[C@@H](CC(=O)OC)c1ccc2c(c1)OCO2 [THI0019]
Effect on endothelial progenitor cells in vitro [13]: enhanced the rolling, spreading, adhesion, and migration
